# Laboratory results: patent US8318815B2, “Method for treatment of tumors using nordihydroguaiaretic acid derivatives” (priority 1999, dated 2012)
# Tests used:
# HSV-1 = HSV-1 skin infection in guinea pig, topical treatment; format: in vivo
# Method: The drug M4N was also tested in inhibition of HSV-1 replication in skin infections in guinea pigs. Guinea pig skin was pinched with needles and HSV-1 […] was applied topically to infect each pricked area. M4N was then applied to the pricked infected area following infection daily for 6 days.
# Six areas of bared back skin of a guinea pig were punched sterilely with a 5=DIN needle. Two areas were infected with HSV-1 (HSV-C, culture supernatant, or isolated HSV in saline, HSV-SC). The other four areas were infected with HSV-SC.
# C3 cells [1] = system: C3 cells
# Method: (§1) FIG. 9. […] (a-d) C3, CEM-T4, C33a, and TC-1 cells were treated with different concentrations of M4N. The number of cells present at the initiation of the experiment is indicated as Day 0. After three days the number of viable cells were counted and plotted versus the M4N concentration. […] After 3 days, one-half of the M4N treated cells were given fresh media containing only 1% DMSO (M-D), while the rest of the cells were given fresh media with the same conditions (second media change). The cells were counted daily and plotted versus the time of treatment.
# HPV-16 transformed immortal mouse epithelial cells (C3 cells) were plated at a density of 10^5 cells per vial.
# The effect on C3 growth following removal of M4N from the medium was also examined. C3 cells were plated at a density of 10^4 cells per vial. […] The other ⅔ of the cell vials were washed and replaced with the same media administered before.
# This hypothesis was tested by examining the antiproliferative effect of M4N on a number of different cell lines.
# survivin gene expression = assay: RT-PCR analysis of survivin gene expression in C3 cells; format: cell-based, mouse; details: 40 μM
# Method: FIG. 17. RT-PCR Analysis of Survivin Gene Expression. […] Bottom: the corresponding GAPDH controls. Band intensities were quantitated with Scion Image. (b) Survivin RT-PCR product signals were normalized to those of the GAPDH controls and plotted.
# M4N Treatment. C3 cells (5×10^6) were seeded in 150-mm plates and allowed to attach to the plates. Twenty-four hours after seeding, cultures were washed twice with PBS and treated with M4N dissolved in 1% DMSO mixed with the growth medium.
# RT-PCR analysis. mRNA was isolated by the guanidinium thiocyanate and phenol method from the cultured cells as described in Molecular Cloning (40). […] The c-DNA products obtained were amplified under the PCR conditions: […], 60° C. for 55 seconds, and 72° C. for 1 minute for 30 cycles.
# [2] = Initial animal toxicity studies of M4N in mice; format: in vivo
# C33a cell line = assay: C33a cell growth; format: cell-based, human; details: three days
# Method: as §1
# CEM-T4 cells = assay: Cell cycle DNA content by propidium iodide flow cytometry, CEM-T4; details: CEMT4, 72 hours
# Excerpt: (§2) The cells were trypsinized, fixed with ethanol, stained with propidium iodide, and were subsequently analyzed by flow cytommetry. […] The indicated stages of the cell cycle are labeled and correspond to the relative cellular DNA compliment as determined by staining intensity.
# caspase-3 = details: C3 cells, 72 hours
# CDC2 mRNA = assay: Northern blot of CDC2 mRNA in C3 cells; details: 40 μM
# C3 cells [3] = assay: Cell cycle DNA content by propidium iodide flow cytometry, C3; details: C3, 72 hours
# Excerpt: as §2
# [4] = system: cellular gene expression in C3 cells; assay: 9600 gene array hybridization of C3 cells; format: cell-based, mouse; details: 72 hrs
# Excerpt: Gene expression with 9600 gene arrays was studied (FIG. 5). Five micrograms each of poly A^+RNA from 72 hrs. M4N ([…]) treated (C3 M4N) and non-treated (C3 DMSO) was used in a pair of human 9600 gene array hybridization study according to the procedure described in Genomics 51, 313-324 1998. The hybridization image was captured by a color video camera with a Nikon 55 mm AF micro Niko lens and digitized by a Macintosh LC630 computer. Such detection via enzyme substrate reaction of color-forming enzymes in either single or dual-color mode is reproducible and extremely sensitive (can detect <5 copies of transcript per cell with RNAs from 10^7 cells).
# […]. Image files in TIFF format and data files in MS excel format are kept on ZIP diskette. Gene names and clone ID numbers are available for obtaining Image clones for future northern blot confirmation.
# [5] = system: SP1-regulated HPV E6/E7 promoter; assay: HPV16 LCR (P97 promoter) luciferase reporter assay in C33A cells; details: thirty hours after drug treatment
# E6/E7 mRNA = assay: RT-PCR of HPV-16 E6/E7 transcripts in C3 cells; details: 40 μM
# Method: The RTPCR samples were removed after increasing cycles of amplification and resolved on an agarose gel.
# The RT-PCR product was analyzed on a 2% agarose gel.
smiles,measurement,setting,value
"COc1ccc(C[C@@H](C)[C@@H](C)Cc2ccc(OC)c(OC)c2)cc1OC [M4N, tetra-O-methylnordihydroguaiaretic acid]",blisters in HSV-1 infected skin areas at day 6,"HSV-1; 30 μl of 60 mg/ml in DMSO, five times per day for six days",no blisters
same,shedding of the virus,HSV-1; 4 days after the drug treatment,no shedding of the virus
same,rate of cell growth following the change to drug-free media,"C3 cells [1]; 40 μM for 73 hours, then media with 1% DMSO only",not notably increased
same,fraction of viable cells compared to the total cell count,C3 cells [1]; 40 μM in 1% DMSO,remained constant
same,growth and division of C3 cells,"C3 cells [1]; 40 μM in 1% DMSO, versus DMSO only control",markedly reduced
same,"""threshold"" concentration above which the percentage of viable cells decreases precipitously",C3 cells [1]; C3 cells,60 µM
same,cell death after prolonged exposure,"C3 cells [1]; C3 cells, eight days, 40 μM",no increase in cell death
same,viable fraction of arrested cells,"C3 cells [1]; the four cell lines treated (C3, CEM-T4, C33a, TC-1), up to the threshold concentration",> 95%
same,reduction in survivin expression,survivin gene expression; 24 hours,65%
same,reduction in survivin expression,survivin gene expression; 72 hours,80%
same,non-toxic to mice at concentrations as high as,[2]; given either subcutaneously or by IV,≤ 375 mg/kg
same,non-toxic to mice at concentrations as high as,[2]; given intraperitoneally,≤ 300 mg/kg
same,growth of C33a cell line,C33a cell line,blocked
same,cells showing G2/M DNA content,CEM-T4 cells,> 90%
same,caspase-3 cleavage,caspase-3,caspase-3 activation
same,amount of CDC2 mRNA,CDC2 mRNA; 24 hours,reduced
same,amount of CDC2 mRNA,CDC2 mRNA; 72 hours,nearly eliminated
same,cells showing G2/M DNA content,C3 cells [3],> 90%
same,"Cyclin-dependent kinase 7 expression, Treated","[4]; 40 μM, Untreated = 100%",(5%)
same,"Cysteine protease expression, Treated","[4]; 40 μM, Untreated = 100%",(7%)
same,"Human TNF-related Apoptosis AP02 expression, Treated","[4]; 40 μM, Untreated = 100%",(3%)
same,"Human cytokine receptor expression, Treated","[4]; 40 μM, Untreated = 100%",(2%)
same,"Proliferating cell nuclear antigen, PCNA expression, Treated","[4]; 40 μM, Untreated = 100%",(1%)
same,Increase: Apoptosis (APO-1) antigen,"[4]; 40 μm, vs C3 DMSO",(100X)
same,Increase: Cyclin-dependent kinase inhibitor,"[4]; 40 μm, vs C3 DMSO",(100X)
same,Increase: Death Domain Three DR3,"[4]; 40 μm, vs C3 DMSO",(100X)
same,Increase: Human Map Kinase,"[4]; 40 μm, vs C3 DMSO",(40X)
same,Increase: Ras-related protein RAP-1,"[4]; 40 μm, vs C3 DMSO",(60X)
same,Sp1 regulated transcription initiation at the HPV E6/E7 promoter (specific luciferase activity),[5],dramatically reduces
same,levels of the E7 transcript,"E6/E7 mRNA; 5 to 72 hours, rtPCR",clear reduction
same,amplified E7 (321 bp) and E6 (204 bp) RT-PCR products,"E6/E7 mRNA; 71 hours, following 30 cycles of amplification",barely detectable
